Experiment: Henry solubility constant Hcp at 298.15 K (mol/(m3 Pa))
Details: reference: Brunner et al. (1990)

Structure (SMILES) | Henry solubility constant Hcp
Clc1cc(-c2cc(Cl)c(Cl)c(Cl)c2Cl)c(Cl)c(Cl)c1Cl [2,2',3,3',4,4',5,5'-octachlorobiphenyl] | 0.99
Clc1cc(-c2c(Cl)cc(Cl)c(Cl)c2Cl)c(Cl)c(Cl)c1Cl [2,2',3,3',4,4',5,6'-octachlorobiphenyl] | 0.99
Clc1cc(Cl)c(-c2c(Cl)c(Cl)cc(Cl)c2Cl)c(Cl)c1Cl [2,2',3,3',4,5',6,6'-octachlorobiphenyl] | 0.58
Clc1cc(Cl)c(Cl)c(-c2ccc(Cl)c(Cl)c2Cl)c1 [2,2',3,3',4,5'-hexachlorobiphenyl] | 0.27
Clc1cc(-c2c(Cl)c(Cl)cc(Cl)c2Cl)c(Cl)c(Cl)c1Cl [2,2',3,3',4,5,5',6'-octachlorobiphenyl] | 0.99
Clc1cc(-c2c(Cl)ccc(Cl)c2Cl)c(Cl)c(Cl)c1Cl [2,2',3,3',4,5,6'-heptachlorobiphenyl] | 0.7
Clc1cccc(-c2c(Cl)c(Cl)c(Cl)c(Cl)c2Cl)c1Cl [2,2',3,3',4,5,6-heptachlorobiphenyl] | 0.7
Clc1cccc(-c2cc(Cl)c(Cl)c(Cl)c2Cl)c1Cl [2,2',3,3',4,5-hexachlorobiphenyl] | 0.34
Clc1cc(Cl)c(Cl)c(-c2c(Cl)c(Cl)cc(Cl)c2Cl)c1Cl [2,2',3,3',5,5',6,6'-octachlorobiphenyl] | 0.55
Clc1cc(Cl)c(Cl)c(-c2c(Cl)ccc(Cl)c2Cl)c1 [2,2',3,3',5,6'-hexachlorobiphenyl] | 0.18
Clc1ccc(Cl)c(-c2c(Cl)c(Cl)cc(Cl)c2Cl)c1Cl [2,2',3,3',5,6,6'-heptachlorobiphenyl] | 0.41
Clc1ccc(Cl)c(-c2c(Cl)ccc(Cl)c2Cl)c1Cl [2,2',3,3',6,6'-hexachlorobiphenyl] | 0.11
Clc1cccc(-c2cccc(Cl)c2Cl)c1Cl [2,2',3,3'-tetrachlorobiphenyl] | 0.099
Clc1cc(Cl)c(-c2cccc(Cl)c2Cl)cc1Cl [2,2',3,4',5'-pentachlorobiphenyl] | 0.13
Clc1cc(Cl)c(Cl)c(-c2cc(Cl)c(Cl)cc2Cl)c1 [2,2',3,4',5,5'-hexachlorobiphenyl] | 0.39
Clc1ccc(-c2c(Cl)c(Cl)cc(Cl)c2Cl)c(Cl)c1 [2,2',3,4',5,6-hexachlorobiphenyl] | 0.19
Clc1cc(Cl)c(-c2ccc(Cl)c(Cl)c2Cl)cc1Cl [2,2',3,4,4',5'-hexachlorobiphenyl] | 0.47
Clc1ccc(-c2ccc(Cl)c(Cl)c2Cl)c(Cl)c1 [2,2',3,4,4'-pentachlorobiphenyl] | 0.15
Clc1ccc(Cl)c(-c2cc(Cl)c(Cl)c(Cl)c2Cl)c1 [2,2',3,4,5,5'-hexachlorobiphenyl] | 0.43

Structure (SMILES) | Henry solubility constant Hcp
Clc1cc(Cl)c(-c2cc(Cl)c(Cl)cc2Cl)cc1Cl [2,2',4,4',5,5'-hexachlorobiphenyl] | 0.43
Clc1ccc(-c2cc(Cl)c(Cl)cc2Cl)c(Cl)c1 [2,2',4,4',5-pentachlorobiphenyl] | 0.13
Clc1cc(Cl)c(-c2c(Cl)cccc2Cl)cc1Cl [2,2',4,5,6'-pentachlorobiphenyl] | 0.11
Clc1ccc(Cl)c(-c2cc(Cl)ccc2Cl)c1 [2,2',5,5'-tetrachlorobiphenyl] | 0.049
Clc1ccc(Cl)c(-c2ccccc2Cl)c1 [2,2',5-trichlorobiphenyl] | 0.039
Clc1cccc(Cl)c1-c1c(Cl)cccc1Cl [2,2',6,6'-tetrachlorobiphenyl] | 0.049
Clc1ccccc1-c1c(Cl)cccc1Cl [2,2',6-trichlorobiphenyl] | 0.043
Clc1ccc(Cl)c(-c2ccc(Cl)c(Cl)c2)c1 [2,3',4',5-tetrachlorobiphenyl] | 0.099
Clc1cccc(-c2cc(Cl)c(Cl)cc2Cl)c1 [2,3',4,5-tetrachlorobiphenyl] | 0.099
Clc1cccc(-c2ccccc2Cl)c1 [2,3'-dichlorobiphenyl] | 0.039
Clc1cc(Cl)cc(-c2cc(Cl)c(Cl)c(Cl)c2Cl)c1 [2,3,3',4,5,5'-hexachlorobiphenyl] | 0.49
Clc1cccc(-c2c(Cl)c(Cl)c(Cl)c(Cl)c2Cl)c1 [2,3,3',4,5,6-hexachlorobiphenyl] | 0.49
Clc1cc(Cl)cc(-c2c(Cl)c(Cl)cc(Cl)c2Cl)c1 [2,3,3',5,5',6-hexachlorobiphenyl] | 0.34
Clc1cc(Cl)c(-c2ccccc2)c(Cl)c1Cl [2,3,4,6-tetrachlorobiphenyl] | 0.047
Clc1ccc(Cl)c(-c2ccccc2)c1Cl [2,3,6-trichlorobiphenyl] | 0.045
Clc1ccc(-c2cc(Cl)ccc2Cl)cc1 [2,4',5-trichlorobiphenyl] | 0.052
Clc1cccc(-c2cc(Cl)cc(Cl)c2)c1 [3,3',5-trichlorobiphenyl] | 0.058
Clc1ccc(-c2ccc(Cl)c(Cl)c2)cc1 [3,4,4'-trichlorobiphenyl] | 0.099
Clc1ccc(-c2ccccc2)cc1Cl [3,4-dichlorobiphenyl] | 0.07
